From PubChem BioAssay AID330 (DTP/NCI, 2004)
“And” between values parts separate entries of the source, which are not always exact repeats. Identical values can stand only once. Toxic doses and inconclusive results are not listed. How the source made its calls: active means survival T/C of 150% or more; inactive means T/C below 125% in these data.

Tested on: P388 leukemia ip, CD2F1 mice, survival T/C
Assay: NCI In Vivo Anticancer Drug Screen. Data for tumor model P388 Leukemia (intraperitoneal) in CD2F1 (CDF1) mice
Conditions: endpoint: median survival time, higher = longer survival
In short: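 Mice carrying the transplanted tumor received test compound or vehicle. Survival was recorded in each group, and the value is the treated-group measurement divided by that of the vehicle-treated control group.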

[1] = dose: 50.0 mg/kg/injection, schedule: Q01DX005 (ip), vehicle: Klucel (hydroxypropylcellulose) (HPC)
[2] = dose: 100.0 mg/kg/injection, schedule: Q01DX005 (ip), vehicle: Klucel (hydroxypropylcellulose) (HPC)
[3] = dose: 200.0 mg/kg/injection, schedule: Q01DX005 (ip), vehicle: Klucel (hydroxypropylcellulose) (HPC)
[4] = dose: 50.0 mg/kg/injection, schedule: Q01DX005 (ip), vehicle: saline
[5] = dose: 200.0 mg/kg/injection, schedule: Q01DX005 (ip), vehicle: saline
[6] = dose: 60.0 mg/kg/injection, schedule: Q01DX005 (ip), vehicle: saline with Tween-80
[7] = dose: 120.0 mg/kg/injection, schedule: Q01DX005 (ip), vehicle: saline with Tween-80
[8] = dose: 240.0 mg/kg/injection, schedule: Q01DX005 (ip), vehicle: saline with Tween-80
[9] = dose: 50.0 mg/kg/injection, schedule: Q01DX009 (ip), vehicle: saline
[10] = dose: 100.0 mg/kg/injection, schedule: Q01DX009 (ip), vehicle: saline

Measured: T/C

O=NNc1cnc(-c2ccccc2)c(-c2ccccc2)n1
inactive: dose: 3.12 mg/kg/injection, schedule: Q01DX009 (ip), vehicle: water 103 % of control | dose: 6.25 mg/kg/injection, schedule: Q01DX009 (ip), vehicle: water 104 % of control | dose: 12.5 mg/kg/injection, schedule: Q01DX009 (ip), vehicle: water 105 % of control and 111 % of control | dose: 25.0 mg/kg/injection, schedule: Q01DX009 (ip), vehicle: water 116 % of control and 117 % of control | dose: 100.0 mg/kg/injection, schedule: Q01DX009 (ip), vehicle: water 96 % of control

CN1CCc2c1cc(-c1ccco1)c1c2N(C)CC1
inactive: [1] 104 % of control | [2] 111 % of control | [3] 107 % of control

CC(C)NCC(O)c1ccc(O)c2ncccc12 (stereo not drawn)
inactive: [4] 100 % of control | dose: 100.0 mg/kg/injection, schedule: Q01DX005 (ip), vehicle: saline 100 % of control | [5] 101 % of control

O=CNc1ccc2c3c(cccc13)-c1ccccc1-2
inactive: [1] 89 % of control | [2] 97 % of control | [3] 100 % of control

c1ccc2c(NCCCCCCCCNc3c4ccccc4nc4ccccc34)c3ccccc3nc2c1
inactive: dose: 0.62 mg/kg/injection, schedule: Q## X009 (ip), vehicle: lactic acid 121 % of control | dose: 0.63 mg/kg/injection, schedule: Q01DX009 (ip), vehicle: other 104 % of control and 114 % of control | dose: 1.25 mg/kg/injection, schedule: Q01DX009 (ip), vehicle: saline 124 % of control | dose: 40.0 mg/kg/injection, schedule: Q01DX009 (ip), vehicle: saline 90 % of control | dose: 80.0 mg/kg/injection, schedule: Q04DX003 (ip), vehicle: Klucel (hydroxypropylcellulose) (HPC) 88 % of control
active: dose: 1.25 mg/kg/injection, schedule: Q01DX009 (ip), vehicle: lactic acid 161 % of control | dose: 2.5 mg/kg/injection, schedule: Q01DX009 (ip), vehicle: lactic acid 159 % of control | dose: 2.5 mg/kg/injection, schedule: Q## X009 (ip), vehicle: lactic acid 154 % of control | dose: 10.0 mg/kg/injection, schedule: Q01DX009 (ip), vehicle: saline 153 % of control

O=C(COc1ccc2c(=O)c3ccccc3oc2c1)N/N=C/c1ccc(N(CCCl)CCCl)cc1
inactive: dose: 60.0 mg/kg/injection, schedule: Q01DX005 (ip), vehicle: Klucel (hydroxypropylcellulose) (HPC) 97 % of control | dose: 120.0 mg/kg/injection, schedule: Q01DX005 (ip), vehicle: Klucel (hydroxypropylcellulose) (HPC) 95 % of control | dose: 240.0 mg/kg/injection, schedule: Q01DX005 (ip), vehicle: Klucel (hydroxypropylcellulose) (HPC) 94 % of control

CSC(=CC(=O)c1ccco1)SC
inactive: [6] 98 % of control | [7] 96 % of control

CCCCCCCCCCC(Nc1nncs1)Nc1nncs1
inactive: [6] 96 % of control | [7] 95 % of control | [8] 95 % of control

COC1C2=C(CCCC2)OC(=O)C1(Cl)c1ccccc1 (stereo not drawn)
inactive: [1] 96 % of control | [2] 101 % of control | [3] 101 % of control

NC(Cc1ccc(OC2c3ccccc3-c3ccccc32)cc1)C(=O)O (stereo not drawn)
inactive: [9] 100 % of control | [10] 91 % of control | dose: 200.0 mg/kg/injection, schedule: Q01DX009 (ip), vehicle: saline 87 % of control

CN(C)C(=S)N/N=C/c1ccccn1
inactive: dose: 6.25 mg/kg/injection, schedule: Q01DX005 (ip), vehicle: Klucel (hydroxypropylcellulose) (HPC) 115 % of control | dose: 12.5 mg/kg/injection, schedule: Q01DX005 (ip), vehicle: Klucel (hydroxypropylcellulose) (HPC) 115 % of control

CSC(=S)N/N=C\C(O)C(O)C(O)C(O)CO (stereo not drawn)
inactive: dose: 6.25 mg/kg/injection, schedule: Q04DX003 (ip), vehicle: saline 104 % of control | dose: 12.5 mg/kg/injection, schedule: Q04DX003 (ip), vehicle: saline 109 % of control | dose: 25.0 mg/kg/injection, schedule: Q04DX003 (ip), vehicle: saline 102 % of control

COc1cc2c(cc1-c1coc3cc(O)ccc3c1=O)OCO2
inactive: dose: 1.1 mg/kg/injection, schedule: Q01DX005 (ip), vehicle: Klucel (hydroxypropylcellulose) (HPC) 90 % of control | dose: 2.13 mg/kg/injection, schedule: Q01DX005 (ip), vehicle: Klucel (hydroxypropylcellulose) (HPC) 86 % of control | dose: 4.25 mg/kg/injection, schedule: Q01DX005 (ip), vehicle: Klucel (hydroxypropylcellulose) (HPC) 92 % of control and 96 % of control | dose: 8.5 mg/kg/injection, schedule: Q01DX005 (ip), vehicle: Klucel (hydroxypropylcellulose) (HPC) 88 % of control and 94 % of control | dose: 68.0 mg/kg/injection, schedule: Q01DX005 (ip), vehicle: Klucel (hydroxypropylcellulose) (HPC) 86 % of control

Cc1c(N=Nc2ccc(Br)cc2)c(-c2ccccc2)nn1C(=S)S
inactive: [1] 105 % of control | [2] 105 % of control | [3] 90 % of control

CC(C)(C#N)Nc1ccccc1
inactive: dose: 3.13 mg/kg/injection, schedule: Q04DX003 (ip), vehicle: saline with Tween-80 87 % of control | dose: 6.25 mg/kg/injection, schedule: Q04DX003 (ip), vehicle: saline with Tween-80 100 % of control and 95 % of control | dose: 12.5 mg/kg/injection, schedule: Q04DX003 (ip), vehicle: saline with Tween-80 100 % of control | dose: 25.0 mg/kg/injection, schedule: Q04DX003 (ip), vehicle: saline with Tween-80 100 % of control

O=C(Nc1ccc(Cl)cc1)Nc1nnc(/C=C/c2ccccc2)o1
inactive: [6] 96 % of control | [7] 96 % of control

O=C(CCCCCCCCCCC(=O)NO)NO
inactive: [6] 105 % of control | [7] 106 % of control | [8] 110 % of control

COC(C(=O)C1=C2Oc3c4c(cc(O)c3C(=O)C2C2=C(CCCC2)C1=O)OC(C)(C)C=C4)C(C)CCC=C(C)C (stereo not drawn)
inactive: [4] 112 % of control | [5] 90 % of control

CC1=N[N+](C)(C)C([O-])=C1C
inactive: dose: 50.0 mg/kg/injection, schedule: Q01DX005 (ip), vehicle: saline with Tween-80 103 % of control | dose: 100.0 mg/kg/injection, schedule: Q01DX005 (ip), vehicle: saline with Tween-80 97 % of control | dose: 200.0 mg/kg/injection, schedule: Q01DX005 (ip), vehicle: saline with Tween-80 100 % of control

OCC1OC(n2c(=S)[nH]c3ccccc32)C(O)C1O (stereo not drawn)
inactive: [6] 98 % of control | [7] 98 % of control

CCN(CC)CC1(C)NN=C2C(n3cccc3)=CC=CN21 (stereo not drawn)
inactive: dose: 60.0 mg/kg/injection, schedule: Q01DX005 (ip), vehicle: saline 104 % of control | dose: 120.0 mg/kg/injection, schedule: Q01DX005 (ip), vehicle: saline 100 % of control

CCOC(=O)C1(CC)C(=O)C=C(c2ccccc2)CC1c1ccccc1 (stereo not drawn)
inactive: dose: 100.0 mg/kg/injection, schedule: Q01DX009 (ip), vehicle: Klucel (hydroxypropylcellulose) (HPC) 99 % of control | dose: 200.0 mg/kg/injection, schedule: Q01DX009 (ip), vehicle: Klucel (hydroxypropylcellulose) (HPC) 94 % of control | dose: 400.0 mg/kg/injection, schedule: Q01DX009 (ip), vehicle: Klucel (hydroxypropylcellulose) (HPC) 94 % of control

CC1(C)CC(=O)c2c(oc3ccc(O)cc23)C1
inactive: [1] 97 % of control | [2] 97 % of control | [3] 92 % of control

CC(C)C(O)(C(=O)OCN1C(=O)C2C3C=CC(C2C1=O)C1C2C(=O)N(COC(=O)C(O)(C(C)C)C(C)O)C(=O)C2C31)C(C)O (stereo not drawn)
inactive: dose: 12.5 mg/kg/injection, schedule: Q01DX009 (ip), vehicle: saline 110 % of control | dose: 25.0 mg/kg/injection, schedule: Q01DX009 (ip), vehicle: saline 103 % of control | [9] 109 % of control | [10] 115 % of control
